From publication PMC6540056, “A Thermostable Aspergillus fumigatus GH7 Endoglucanase Over-Expressed in Pichia pastoris Stimulates Lignocellulosic Biomass Hydrolysis” (International Journal of Molecular Sciences, 2019)

Biological target: T1, Af-EGL7 (Aspergillus fumigatus, UniProt Q4WCM9)
T1 construct: gene AFUA_6G01800; ORF without predicted signal peptide in pPICZalphaA, alpha-factor secretion signal, C-terminal vector tag with His6 kept, from Pichia pastoris X-33, N-glycosylated, about 70 kDa on SDS-PAGE; forward primer encodes EF-QQPAA at N-terminus
T1 sequence (Q4WCM9 21-460): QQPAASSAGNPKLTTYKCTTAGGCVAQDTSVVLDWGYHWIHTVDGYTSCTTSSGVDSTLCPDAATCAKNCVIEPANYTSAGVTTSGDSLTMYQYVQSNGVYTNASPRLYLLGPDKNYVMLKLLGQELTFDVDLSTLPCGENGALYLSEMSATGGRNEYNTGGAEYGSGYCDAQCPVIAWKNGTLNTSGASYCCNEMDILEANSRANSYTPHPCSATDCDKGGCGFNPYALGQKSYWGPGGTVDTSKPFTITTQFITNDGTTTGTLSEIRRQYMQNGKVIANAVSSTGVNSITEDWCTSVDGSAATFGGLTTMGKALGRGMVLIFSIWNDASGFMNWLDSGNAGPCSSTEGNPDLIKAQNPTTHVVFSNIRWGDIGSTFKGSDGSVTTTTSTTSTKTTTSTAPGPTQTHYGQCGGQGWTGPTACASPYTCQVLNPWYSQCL
Test: colorimetric, Azo-Xyloglucan hydrolysis, […] nm
Type: biochemical
Conditions: read-out: % inhibition at 50 mM

Molecule `OC[C@H]1O[C@@H](O[C@H]2[C@H](O)[C@@H](O)C(O)O[C@@H]2CO)[C@H](O)[C@@H](O)[C@@H]1O` (stereo partly shown) [cellobiose] has an inhibition at 50000 µM of 35%.
